{"source": "patent US20230203081A1", "about": "“LINCOSAMIDE ANTIBIOTICS AND USES THEREOF” (President and Fellows of Harvard College, priority 2020, published 2023)", "tested_on": "broad panel of different clinical isolates", "assay": "microbe, parasite or virus in culture", "type": "cell-based", "procedure,_shortened": "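Isolates other than streptococci and anaerobes, which had their own procedures, were grown overnight at 35° C on tryptic soy agar with 5% sheep blood. Suspensions were then diluted to a final inoculum of 5×10^5 CFU/mL in broth microdilution wells.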", "data": [{"smiles": "CSC1O[C@H]([C@H](NC(=O)[C@H]2NC[C@@H]3C[C@H](CC(C)C)CCO[C@H]32)[C@H](C)Cl)C(O)[C@@H](O)[C@H]1O", "note": "(stereo partly shown) [FSA-513018b]", "values": [{"measurement": "MIC", "setting": "Acinetobacter baumannii, A. baumannii HAV#651, Clinical", "result": 4, "unit": "µg/mL"}, {"measurement": "MIC", "setting": "Acinetobacter baumannii, A. baumannii HAV#652 Clinical", "result": 8, "unit": "µg/mL"}, {"measurement": "MIC", "setting": "Acinetobacter baumannii, A. baumannii HAV#653, Clinical", "result": 4, "unit": "µg/mL"}, {"measurement": "MIC", "setting": "Acinetobacter baumannii, A. baumannii HAV#654, Clinical", "result": 8, "unit": "µg/mL"}, {"measurement": "MIC", "setting": "Acinetobacter baumannii, A. baumannii HAV#655, Clinical", "result": 8, "unit": "µg/mL"}, {"measurement": "MIC", "setting": "Acinetobacter baumannii, A. baumannii HAV#656, Clinical", "result": 16, "unit": "µg/mL"}, {"measurement": "MIC", "setting": "Acinetobacter baumannii, A. baumannii HAV#657, Clinical", "result": 4, "unit": "µg/mL"}, {"measurement": "MIC", "setting": "Acinetobacter baumannii, A. baumannii HAV#658, Clinical", "result": 4, "unit": "µg/mL"}, {"measurement": "MIC", "setting": "Acinetobacter baumannii, A. baumannii HAV#659, Clinical", "result": 8, "unit": "µg/mL"}, {"measurement": "MIC", "setting": "Acinetobacter baumannii, A. baumannii HAV#660, Clinical", "result": 16, "unit": "µg/mL"}, {"measurement": "MIC", "setting": "Acinetobacter baumannii, A. baumannii HAV#661, Clinical", "result": 8, "unit": "µg/mL"}, {"measurement": "MIC", "setting": "Acinetobacter baumannii, A. baumannii HAV#662, Clinical", "result": 8, "unit": "µg/mL"}, {"measurement": "MIC", "setting": "Acinetobacter baumannii, A. baumannii HAV#663, Clinical", "result": 4, "unit": "µg/mL"}, {"measurement": "MIC", "setting": "Acinetobacter baumannii, A. baumannii HAV#664, Carbapenem R", "result": 16, "unit": "µg/mL"}, {"measurement": "MIC", "setting": "Enterococcus faecalis, E. faecalis HAV#602, Clincal", "result": "≤ 0.06", "unit": "µg/mL"}, {"measurement": "MIC", "setting": "Enterococcus faecalis, E. faecalis HAV#607, Clinical", "result": 2, "unit": "µg/mL"}, {"measurement": "MIC", "setting": "Enterococcus faecalis, E. faecalis HAV#609, Clinical", "result": 2, "unit": "µg/mL"}, {"measurement": "MIC", "setting": "Enterococcus faecalis, E. faecalis HAV#611, Line R & Vanco R", "result": 0.125, "unit": "µg/mL"}, {"measurement": "MIC", "setting": "Enterococcus faecalis, E. faecalis HAV#612, Line R", "result": "≤ 0.06", "unit": "µg/mL"}, {"measurement": "MIC", "setting": "Enterococcus faecalis, S. faecalis 5060, Line R & Vanco R", "result": 0.125, "unit": "µg/mL"}, {"measurement": "MIC", "setting": "Enterococcus faecalis, S. faecalis 5074, Line R", "result": "≤ 0.06", "unit": "µg/mL"}, {"measurement": "MIC", "setting": "Enterococcus faecium, E. faecium HAV#317, Clinical", "result": 0.25, "unit": "µg/mL"}, {"measurement": "MIC", "setting": "Enterococcus faecium, E. faecium HAV#324, Clinical", "result": 1, "unit": "µg/mL"}, {"measurement": "MIC", "setting": "Enterococcus faecium, E. faecium HAV#327, Clinical", "result": 0.06, "unit": "µg/mL"}, {"measurement": "MIC", "setting": "Enterococcus faecium, E. faecium HAV#328, Clinical", "result": 1, "unit": "µg/mL"}, {"measurement": "MIC", "setting": "Enterococcus faecium, E. faecium HAV#329, Clinical", "result": 1, "unit": "µg/mL"}, {"measurement": "MIC", "setting": "Enterococcus faecium, E. faecium HAV#604, Clinical", "result": 0.06, "unit": "µg/mL"}, {"measurement": "MIC", "setting": "Enterococcus faecium, VRE, E. faecium HAV#319, Line R & Vanco R", "result": "≤ 0.06", "unit": "µg/mL"}, {"measurement": "MIC", "setting": "Enterococcus faecium, VRE, E. faecium HAV#320, Clinical", "result": 0.25, "unit": "µg/mL"}, {"measurement": "MIC", "setting": "Enterococcus faecium, VRE, E. faecium HAV#326, Clinical", "result": 0.25, "unit": "µg/mL"}, {"measurement": "MIC", "setting": "Escherichia coli, E. coli HAV#501, Clinical", "result": 8, "unit": "µg/mL"}, {"measurement": "MIC", "setting": "Escherichia coli, E. coli HAV#503, Clinical", "result": 8, "unit": "µg/mL"}, {"measurement": "MIC", "setting": "Escherichia coli, E. coli HAV#511, Clinical", "result": 4, "unit": "µg/mL"}, {"measurement": "MIC", "setting": "Escherichia coli, E. coli HAV#512, Clinical", "result": 8, "unit": "µg/mL"}, {"measurement": "MIC", "setting": "Escherichia coli, E. coli HAV#513, Clinical", "result": 16, "unit": "µg/mL"}, {"measurement": "MIC", "setting": "Escherichia coli, E. coli HAV#514, Clinical", "result": 8, "unit": "µg/mL"}, {"measurement": "MIC", "setting": "Escherichia coli, E. coli HAV#516, ESBL-producing", "result": 8, "unit": "µg/mL"}, {"measurement": "MIC", "setting": "Haemophilus influenzae, ATCC9007, H. influenzae HAV#376, ATCC-9007", "result": 0.5, "unit": "µg/mL"}, {"measurement": "MIC", "setting": "K. pneumnoniae HAV#402, FQ-R", "result": 16, "unit": "µg/mL"}, {"measurement": "MIC", "setting": "Klebsiella pneumoniae, K. pneumoniae HAV#041, Clinical, KPC", "result": 32, "unit": "µg/mL"}, {"measurement": "MIC", "setting": "Klebsiella pneumoniae, K. pneumoniae HAV#402, FQ-R", "result": 16, "unit": "µg/mL"}, {"measurement": "MIC", "setting": "Klebsiella pneumoniae, K. pneumoniae HAV#404, Clinical", "result": 32, "unit": "µg/mL"}, {"measurement": "MIC", "setting": "Klebsiella pneumoniae, K. pneumoniae HAV#405, Clinical", "result": 16, "unit": "µg/mL"}, {"measurement": "MIC", "setting": "Klebsiella pneumoniae, K. pneumoniae HAV#406, Clinical", "result": 64, "unit": "µg/mL"}, {"measurement": "MIC", "setting": "Klebsiella pneumoniae, K. pneumoniae HAV#407, Clinical", "result": 128, "unit": "µg/mL"}, {"measurement": "MIC", "setting": "Klebsiella pneumoniae, K. pneumoniae HAV#408, Clinical", "result": 128, "unit": "µg/mL"}, {"measurement": "MIC", "setting": "Klebsiella pneumoniae, K. pneumoniae HAV#409, ESBL-producing", "result": 16, "unit": "µg/mL"}, {"measurement": "MIC", "setting": "Neisseria gonorrhoeae, N. gonorrhoeae HAV#701, Clinical", "result": 0.125, "unit": "µg/mL"}, {"measurement": "MIC", "setting": "Neisseria gonorrhoeae, N. gonorrhoeae HAV#702, Clinical", "result": 0.125, "unit": "µg/mL"}, {"measurement": "MIC", "setting": "Staphylococcus aureus, MRSA, S. aureus HAV#218, Line R", "result": 0.125, "unit": "µg/mL"}, {"measurement": "MIC", "setting": "Staphylococcus aureus, MRSA, S. aureus HAV#220, Line R", "result": "> 128", "unit": "µg/mL"}, {"measurement": "MIC", "setting": "Staphylococcus aureus, MSSA, S. aureus HAV#219, Line R", "result": "> 128", "unit": "µg/mL"}, {"measurement": "MIC", "setting": "Staphylococcus aureus, S. aureus HAV#051, mecA, norA, spcl, ermA, aad1, aac6′-aph2″", "result": "≤ 0.03", "unit": "µg/mL"}, {"measurement": "MIC", "setting": "Staphylococcus aureus, S. aureus HAV#052, mecA, norA, fosB, blaZ", "result": "≤ 0.03", "unit": "µg/mL"}, {"measurement": "MIC", "setting": "Staphylococcus aureus, S. aureus HAV#053 mecA, norA, fosB", "result": "≤ 0.03", "unit": "µg/mL"}]}]}
